Patent US8198273B2, “Compounds and methods for kinase modulation, and indications therefor” (Plexxikon Inc., priority 2009, dated 2012)

Key:
[1] = tested on: IPC298 melanoma cells (Ras mutation); assay: IPC298 cell growth inhibition (ATPlite); type: cell-based; details: Homo sapiens, IPC-298, 72 h; IPC298, 3 days incubation
Procedure: (§1) Compounds are assessed in a variety of cell based assays. For example human cell lines with B-Raf V600E mutation (A375 melanoma, SKMEL3 melanoma, and COL0205 colon adenocarcinoma), as well as tumorigenic cell lines with wild-type B-RAF (SW620 colon adenocarcinoma) or with Ras mutations (SKMEL2 melanoma and IPC298 melanoma). Similar assays may be used to assess additional tumorigenic cell lines with Ras mutations, including, but not limited to, M202, M207, M243, M244, M296, S117, HCT116, HCT15, DLD1, MiaPaCa, A549, NCI-H23, NCI-H460, HOP62, MDA-MB231, Hs-578T, HL60, MOLT-4, and CCRF-CEM.
(§2) On day 1, cells are counted, then centrifuged in a conical tube for 5 minutes at 1000 rpm. The supernatant is removed and cells are re-suspended as follows: • SW620 (ATCC catalog #CCL-27): resuspend in Leibovitz's L-15 medium, 2 mM L-glutamine, 10% fetal bovine serum to 6×10^4 cells/mL. • A375 (ATCC catalog #CRL-1619): resuspend in Dulbecco's modified Eagle's medium, 4 mM L-glutamine, 4.5 g/L D-glucose, 10% fetal bovine serum to 6×10^4 cells/mL. • COL0205 (ATCC catalog #CCL-222): resuspend in RPMI 1640, 2 mM L-glutamine, 1.5 g/L sodium bicarbonate, 4.5 g/L D-glucose, 10 mM HEPES, 1.0 mM sodium pyruvate, 10% fetal bovine serum to 6×10^4 cells/mL. • SKMEL2 (ATCC catalog #HTB-68): resuspend in Minimum Eagle essential medium, 2 mM L-glutamine, 1.5 g/L sodium bicarbonate, 0.1 mM non-essential amino acids, 1.0 mM sodium pyruvate, 10% fetal bovine serum to 6×10^4 cells/mL. • SKMEL3 (ATCC catalog #HTB-69): resuspend in McCoy's 5A medium, 1.5 mM L-glutamine, 15% fetal bovine serum to 6×10^4 cells/mL. • IPC298 (DSMZ catalog #ACC 251): resuspend in RPMI 1640, 2 mM L-glutamine, 10% fetal bovine serum to 6×10^4 cells/mL.
(§3) The cells are plated, 50 μL in each well of a 96-well dish (Corning 3610) and incubated at 37° C. in 5% CO2 overnight, cells plated to a final concentration of cells as follows:
On day 2, compound at a maximum concentration of 5 mM is serially diluted 1:3 for a total of 8 point titration with DMSO as a control. […]
(§4) On day 5, ATPlite 1 step Luminescence Assay System (Perkin Elmer #6016739) is brought to room temperature along with the cell cultures. ATPlite is added 25 μL to each well, shake for 2 minutes, and the cells are incubated at room temperature for 10 minutes, then luminescence is read on Safire reader. The measured luminescence correlates directly with cell number, such that the reading as a function of compound concentration is used to determine the IC50 value.
It is understood that the results of these assays may vary as assay conditions are varied. Inhibition levels determined under the conditions described herein represent a relative activity for the compounds tested under the specific conditions employed. […]

[2] = tested on: SKMEL3 melanoma cells (B-Raf V600E); assay: SKMEL3 cell growth inhibition (ATPlite); type: cell-based; details: Homo sapiens, SK-MEL3, 72 h; SKMEL3, 3 days incubation
Procedure: as §1, §2, §3
SKMEL3: 3,000 cells per well.
On day 2, compound at a maximum concentration of 5 mM is serially diluted 1:3 for a total of 8 point titration with DMSO as a control. A 1 μL aliquot of each dilution point and control is added to 249 μL growth media and 50 μL is added to a well containing cells, providing 10 μM compound at the maximum concentration point. The cells are incubated for 3 days at 37° C. in 5% CO2.
as §4
It is understood that the results of these assays may vary as assay conditions are varied. Inhibition levels determined under the conditions described herein represent a relative activity for the compounds tested under the specific conditions employed. The cell based assays are likely to show variability due to the complexity of the system and the sensitivity thereof to any changes in the assay conditions. […] Results for compounds that are tested and show substantially no inhibition below the highest tested concentration are represented as “-” in the tables below. In some instances, the compounds were not tested in all of the assays, or assay results were not valid, as indicated by NA in the tables below.

| SMILES | IC50 [1] [nM] | IC50 [2] [nM] |
| --- | --- | --- |
| COc1ncc(-c2cnc3[nH]cc(C(=O)c4c(F)ccc(NS(=O)(=O)c5cccc(F)c5)c4F)c3c2)cn1 [P-2045, N-{2,4-Difluoro-3-[5-(2-methoxy-pyrimidin-5-yl)-1H-pyrrolo[2,3-b]pyridine-3-carbonyl]-phenyl}-3-fluoro-benzenesulfonamide] | – | < 5000 |
| CCCS(=O)(=O)Nc1ccc(F)c(C(=O)c2c[nH]c3ncc(-c4cnc(SC)nc4)cc23)c1F [P-2189, Propane-1-sulfonic acid {2,4-difluoro-3-[5-(2-methylsulfanyl-pyrimidin-5-yl)-1H-pyrrolo[2,3-b]pyridine-3-carbonyl]-phenyl}-amide] | < 10000 | – |
| CCCS(=O)(=O)Nc1ccc(F)c(C(=O)c2c[nH]c3ncc(-c4cnc(N(C)C)nc4)cc23)c1F [P-2196, Propane-1-sulfonic acid {3-[5-(2-dimethylamino-pyrimidin-5-yl)-1H-pyrrolo[2,3-b]pyridine-3-carbonyl]-2,4-difluoro-phenyl}-amide] | < 10000 | < 1000 |
| CCCS(=O)(=O)Nc1ccc(F)c(C(=O)c2c[nH]c3ncc(-c4cnc(N5CCCC5)nc4)cc23)c1F [P-2219, Propane-1-sulfonic acid {2,4-difluoro-3-[5-(2-pyrrolidin-1-yl-pyrimidin-5-yl)-1H-pyrrolo[2,3-b]pyridine-3-carbonyl]-phenyl}-amide] | – | < 5000 |

Continued, values first:

| IC50 [1] [nM] | IC50 [2] [nM] | SMILES |
| --- | --- | --- |
| < 1000 | < 1000 | COc1ncc(-c2cnc3[nH]cc(C(=O)c4c(F)ccc(NS(=O)(=O)c5ccccc5F)c4F)c3c2)cn1 [P-2041, N-{2,4-Difluoro-3-[5-(2-methoxy-pyrimidin-5-yl)-1H-pyrrolo[2,3-b]pyridine-3-carbonyl]-phenyl}-2-fluoro-benzenesulfonamide] |
| < 1000 | < 1000 | COc1ncc(-c2cnc3[nH]cc(C(=O)c4c(F)ccc(NS(=O)(=O)c5cc(F)ccc5F)c4F)c3c2)cn1 [P-2042, N-{2,4-Difluoro-3-[5-(2-methoxy-pyrimidin-5-yl)-1H-pyrrolo[2,3-b]pyridine-3-carbonyl]-phenyl}-2,5-difluoro-benzenesulfonamide] |
